Here are results for seven molecules from ChEMBL document CHEMBL1158425 (Bioorg Med Chem Lett, 2009).

A short description of assay [1]: Growth inhibition of human paclitaxel-resistant A2780TC1 cells overexpressing class 3 beta-tubulin after 72 hrs. It is filed as functional, cell-based. The conditions noted are these: A2780TC1, 72 h.
Assay [2] deals with A2780. In words: Growth inhibition of human wild type A2780 cells after 72 hrs. It is filed as functional, cell-based. Particulars: A2780, 72 h.
Assay [3] is described as follows: Growth inhibition of human paclitaxel-resistant A2780TC3 cells overexpressing class 3 beta-tubulin after 72 hrs. It is filed as functional, cell-based. The conditions noted are these: A2780TC3, 72 h.
Assay [4] can be described thus: Ratio of IC50 for IDN 5390 to IC50 for paclitaxel against human paclitaxel-resistant A2780TC3 cells overexpressing class 3 beta-tubulin. The class given is functional.
For assay [5], the system named is A2780. In words: Resistant factor, IC50 for human paclitaxel-resistant A2780TC3 cells overexpressing class 3 beta-tubulin to IC50 for human wild type A2780 cells. It is filed as functional.
For assay [6], the system named is A2780. In words: Growth inhibition of human adriamycin and doxorubicin-resistant A2780 cells after 72 hrs. Particulars: A2780, 72 h. The class given is functional, cell-based.
In assay [7] the test system is A2780. Briefly: Growth inhibition of human topotecan-resistant A2780 cells after 72 hrs. It is filed as functional, cell-based. Particulars: A2780, 72 h.
Assay [8] relates to A2780. In words: Growth inhibition of human cisplatin-resistant A2780 cells after 72 hrs. The class given is functional, cell-based. The conditions noted are these: A2780, 72 h.
Assay [9] is described as follows: Ratio of IC50 for drug to IC50 for IDN 5390 against human paclitaxel-resistant A2780TC3 cells overexpressing class 3 beta-tubulin. It is filed as functional.
Assay [10] has as its system A2780. Briefly: Ratio of IC50 for drug to IC50 for IDN 5390 against human adriamycin and doxorubicin-resistant A2780 cells. The class given is functional.
The nature of assay [11]: Ratio of IC50 for drug to IC50 for paclitaxel against human paclitaxel-resistant A2780TC1 cells overexpressing class 3 beta-tubulin. It is filed as functional.
The nature of assay [12]: Ratio of IC50 for drug to IC50 for paclitaxel against human paclitaxel-resistant A2780TC3 cells overexpressing class 3 beta-tubulin. The class given is functional.
The test system of assay [13] is A2780. Briefly: Ratio of IC50 for drug to IC50 for paclitaxel against human adriamycin and doxorubicin-resistant A2780 cells. It is filed as functional.
Assay [14] concerns A2780. Briefly: Resistant factor, IC50 for human paclitaxel-resistant A2780TC1 cells overexpressing class 3 beta-tubulin to IC50 for human wild type A2780 cells. It is filed as functional, cell-based.

Usually IC50 stands for the concentration at which inhibition is half-maximal. A low value points to greater potency in that assay.

With `CC(=O)O[C@@]1([C@@H]2/C(C)=C(/O)C(=O)C3=C(C)[C@@H](OC(=O)[C@H](O)[C@H](CC(C)C)NC(=O)OC(C)(C)C)C[C@@](O)([C@H]2OC(=O)c2ccccc2)C3(C)C)CO[C@@H]1CCO`, the IC50 was determined as 2060 nM in [1]; 17.4 nM in the assay on A2780 [2]; 2240 nM in assay [3]; 2620 nM in the assay on A2780 [6]; 27.5 nM with A2780 [7]; 16.8 nM in the assay on A2780 [8]. Further, the “Ratio IC50” value in [4] was 8; in the assay on A2780 [5], 129.

As for `COc1cccc(C(=O)O[C@H]2[C@H]([C@]3(OC(C)=O)CO[C@@H]3CCO)/C(C)=C(/O)C(=O)C3=C(C)[C@@H](OC(=O)[C@H](O)[C@H](C=C(C)C)NC(=O)OC(C)(C)C)C[C@]2(O)C3(C)C)c1`, the “Ratio IC50” value in [9] came to 3; in the assay on A2780 [10], 4.3; in [11], 2.3; in [12] it was 24; with A2780 [13], 2.1. Besides, the IC50 in [1] came to 1060 nM; in the assay with A2780 [2], 4.6 nM; in assay [3], 490 nM; with A2780 [6], 386 nM; in the assay on A2780 [7] it was 2.6 nM; in the assay on A2780 [8] it was 5.7 nM.

As for `COc1cccc(C(=O)O[C@H]2[C@H]([C@]3(OC(C)=O)CO[C@@H]3CCO)/C(C)=C(/O)C(=O)C3=C(C)[C@@H](OC(=O)[C@H](O)[C@H](CC(C)C)NC(=O)OC(C)(C)C)C[C@]2(O)C3(C)C)c1`, the “Ratio IC50” value came to 3 in assay [9]; 4.3 in the assay with A2780 [10]; 2.3 in assay [11]; 24 in [12]; 31 in the assay on A2780 [5]; 2.1 in the assay on A2780 [13]. In addition, the IC50 in assay [1] stood at 1120 nM; in the assay on A2780 [2], 6.8 nM; in assay [3], 211 nM; in the assay with A2780 [6], 356 nM; in the assay on A2780 [7], 3.5 nM; in the assay on A2780 [8], 4.3 nM.

Take `CC(=O)O[C@@]1([C@@H]2/C(C)=C(/O)C(=O)C3=C(C)[C@@H](OC(=O)[C@H](O)[C@H](CC(C)C)NC(=O)OC(C)(C)C)C[C@@](O)([C@H]2OC(=O)c2cccc(Cl)c2)C3(C)C)CO[C@@H]1CCO`: the “Ratio IC50” value in assay [9] came to 3; with A2780 [10], 4.3; in [11], 2.3; in assay [12] it was 24; in the assay on A2780 [13], 2.1. Further, the IC50 in [1] was 1800 nM; in the assay with A2780 [2] it was 5.5 nM; in [3], 385 nM; in the assay on A2780 [6], 604 nM; with A2780 [7] it was 4.6 nM; with A2780 [8], 4.1 nM.

Take `CC(=O)O[C@@]1([C@@H]2/C(C)=C(/O)C(=O)C3=C(C)[C@@H](OC(=O)[C@H](O)[C@H](C=C(C)C)NC(=O)OC(C)(C)C)C[C@@](O)([C@H]2OC(=O)c2cccc(Cl)c2)C3(C)C)CO[C@@H]1CCO`: the “Ratio IC50” value in [9] turned out to be 3; in the assay with A2780 [10] it was 4.3; in assay [11] it was 2.3; in assay [12] it was 24; with A2780 [13], 2.1; with A2780 [14] it was 163. Further, the IC50 came to 751 nM in [1]; 4.6 nM in the assay on A2780 [2]; 357 nM in assay [3]; 452 nM in the assay with A2780 [6]; 1.7 nM with A2780 [7]; 4 nM in the assay on A2780 [8].

Turning to `CC(=O)O[C@@]1([C@@H]2/C(C)=C(/O)C(=O)C3=C(C)[C@@H](OC(=O)[C@H](O)[C@H](CC(C)C)NC(=O)OC(C)(C)C)C[C@@](O)([C@H]2OC(=O)c2cccc(F)c2)C3(C)C)CO[C@@H]1CCO`, the figures for the “Ratio IC50” value in assay [9], in assay [11] and in assay [12] were 3, 2.3 and 24, respectively. In addition, the IC50 came to 1500 nM in assay [1]; 11.1 nM in the assay on A2780 [2]; 460 nM in assay [3]; 3730 nM in the assay on A2780 [6]; 12.8 nM in the assay on A2780 [7]; 11.8 nM with A2780 [8].

With `CC(=O)O[C@@]1([C@@H]2/C(C)=C(/O)C(=O)C3=C(C)[C@@H](OC(=O)[C@H](O)[C@H](C=C(C)C)NC(=O)OC(C)(C)C)C[C@@](O)([C@H]2OC(=O)c2cccc(F)c2)C3(C)C)CO[C@@H]1CCO`, the entries for the “Ratio IC50” value in assay [9] and in assay [12] were 3 and 24, respectively. The same molecule showed an IC50 with A2780 [6] of 2220 nM.
